These are literature values, as cited in patent publication US6416793B1, “Formulations and use of controlled-release indole alkaloids” (BioResponse, L.L.C., priority 2000, dated 2002).

Structures can show the parent of a compound that is named as a salt.

One data set relates to overweight men. As to conditions: 16.2 to 43.2 mg/day, six month period.
The conditions of data set [1]: tableted preparations of pure yohimbine.
The subject of the next data set is dogs. As to conditions: 0.4 mg/kg/day.
The subject of data set [2] is obese and non-obese women. As to conditions: in vivo.
For data set [3], the system named is overweight female subjects. As to conditions: three weeks.

For `O=C(O[C@@H]1Cc2c(O)cc(O)cc2O[C@@H]1c1cc(O)c(O)c(O)c1)c1cc(O)c(O)c(O)c1` [epigallocatechin gallate (EGCG), epigallocatechin gallate], the “rate of weight loss” value in the data set on diet-restricted animals is reported as “increase the rate of weight loss in diet-restricted animals”. Further, in the data set on humans, the resting energy expenditure entry is listed as “increase resting energy expenditure in humans”.

For `COC(=O)[C@@H]1[C@H]2C[C@H]3c4[nH]c5ccccc5c4CCN3C[C@@H]2CC[C@@H]1O` [yohimbine Hcl, (16 alpha, 17 alpha)-17-hydroxyyohimban-16-carboxylic acidmethyl ester hydrochloride], the “additional weight loss versus placebo” value with overweight men is listed as “failed to show advantage in additional weight loss over placebo”.

Take `COC(=O)[C@@H]1[C@H]2C[C@H]3c4[nH]c5ccccc5c4CCN3C[C@@H]2CC[C@@H]1O` [yohimbine]: the plasma half life entry in data set [1] was “less than 1 hour”.

As for yohimbine, the body weight result in the data set on dogs is listed as “rapid loss of body weight”. Also, the daily food intake result with dogs (rapidly absorbed pure yohimbine) is recorded as “dramatic reduction in daily food intake”. Moreover, the “circulating levels of norepinephrine” value in data set [2] is on record as “increase circulating levels of norepinephrine”. For the same molecule, the “continued weight loss versus placebo” value in data set [3] (5 mg 4 times per day (20 mg/day), weight loss diet) is “Significantly greater continued weight loss”. Further, the “energy expenditure during exercise” value in data set [3] (20 mg/day) is “greater energy expenditure in the treated group during exercise”.
